# According to US6841548B2, “Pharmaceutical preparations containing estra-1,3,5(10)-triene derivatives” (Schering AG, priority 1994, dated 2005):
# Columns and labels:
# ovariectomated rats [1] = assay: Hepatic parameters: HDL cholesterol levels in serum, enzymatic test; format: in vivo, rat; conditions: Experiment A
# From the text: (§1) The laboratory animals, adult female rats (breeder: HSD/WIN:WU) were ovariectomated on day 14. Treatment started two weeks later by a single oral application per day of the respective test substance. The dosages given for esters refer to the steroid portion of the substances. The tests were made in three groups (A, B, C) at various points in time. This is why there is a deviation in control group values. The tests of series A, B, and C can therefore be compared among each other if the values for the respective control groups are taken into account.
# (§2) The procedure of allocating animals to groups was randomized. The experiment was carried out as a block test. The animals were weighed at the beginning and at the end of the experiment.
# (§3) The start of treatment was defined as day 1 (=d1), treatment was finished on day 7 (=d7); the animals were killed on day 8, various organs (uteri, adrenal glands, liver) were removed, weighed and deep-frozen (−196° C.) for further examination.
# (§4) Blood was taken from the retrobulbar plexus under ether anaesthesia prior to treatment (d0), and on (d4) and (d8). IGF1, angiotensin I, cholesterol and HDL cholesterol were determined in the serum obtained.
# (§5) cholesterol/HDL: enzymatic tests, photometric determination, reagents by Dr Bruno Lange GmbH.
# ovariectomated rats [2] = assay: Oral estrogen treatment: serum IGF1 (somatomedin C), RIA; format: in vivo, rat; design: unit not given here; conditions: Experiment A
# From the text: as §1, §2, §3, §4
# IGF1: RIA by bioMérieux Co.;
# ovariectomated rats [3] = assay: Hepatic parameters: total cholesterol levels in serum, enzymatic test; format: in vivo, rat; conditions: for Total cholesterol levels (mean value ± standard deviation): Experiment A
# Method: The laboratory animals, adult female rats (breeder: HSD/WIN:WU) were ovariectomated on day 14. Treatment started two weeks later by a single oral application per day of the respective test substance. The dosages given for esters refer to the steroid portion of the substances. The tests were made in three groups (A, B, C) at various points in time.
# as §2, §3, §4, §5
# ovariectomated rats [4] = assay: Oral estrogenic effects: weights of adrenal glands in ovariectomated rats; format: in vivo, rat
# From the text: as §1, §2, §3
# [5] = oral, humans, Goldzieher study; cited from earlier work
# ovariectomated rats [6] = assay: Hepatic parameters: serum angiotensin I, modified RIA for renin activity; format: in vivo, rat; design: Angiotensin I: unit not given here; conditions: for Angiotensin I: Experiment A
# From the text: as §1, §2, §3, §4
# angiotensin: modified RIA for renin activity by Sorin Co.
# ovariectomated rats [7] = assay: Oral estrogenic effects: uterus weights in ovariectomated rats; format: in vivo, rat
# From the text: as §1, §2, §3
# [8] = day 4, 0.1 μg/animal/day p.o. d1-d7
# [9] = day 4, 1 μg/animal/day p.o. d1-d7
# [10] = day 4, 10 μg/animal/day p.o. d1-d7
# [11] = day 4, 100 μg/animal/day p.o. d1-d7
# [12] = day 8, 0.1 μg/animal/day p.o. d1-d7
# [13] = day 8, 1 μg/animal/day p.o. d1-d7
# [14] = day 8, 10 μg/animal/day p.o. d1-d7
# [15] = day 8, 100 μg/animal/day p.o. d1-d7
# [16] = 100 μg/animal/day p.o. d1-d7, d 0 (prior to treatment)
# [17] = 100 μg/animal/day p.o. d1-d7, d 4
# [18] = 100 μg/animal/day p.o. d1-d7, d 8
# [19] = Experiment A, 0.1 μg/animal/day p.o. d1-d7
# [20] = Experiment A, 1 μg/animal/day p.o. d1-d7
# [21] = Experiment A, 10 μg/animal/day p.o. d1-d7
# [22] = Experiment A, 100 μg/animal/day p.o. d1-d7
# [23] = Experiment B, 10 μg/animal/day p.o. d1-d7
# [24] = Experiment C, 10 μg/animal/day p.o. d1-d7
structure (smiles),measurement,setting,value
"C#C[C@]1(O)CC[C@H]2[C@@H]3CCc4cc(O)ccc4[C@H]3CC[C@@]21C [EE, ethinyl estradiol]",HDL cholesterol levels (mean value ± standard deviation),ovariectomated rats [1]; [8],49.6 ± 2.9 mg/dL
same,HDL cholesterol levels (mean value ± standard deviation),ovariectomated rats [1]; [9],47.1 ± 8.5 mg/dL
same,HDL cholesterol levels (mean value ± standard deviation),ovariectomated rats [1]; [10],19.5 ± 8.4 mg/dL
same,HDL cholesterol levels (mean value ± standard deviation),ovariectomated rats [1]; [11],3.6 ± 1.3 mg/dL
same,HDL cholesterol levels (mean value ± standard deviation),ovariectomated rats [1]; [12],52.2 ± 4.1 mg/dL
same,HDL cholesterol levels (mean value ± standard deviation),ovariectomated rats [1]; [13],49.5 ± 6.9 mg/dL
same,HDL cholesterol levels (mean value ± standard deviation),ovariectomated rats [1]; [14],26.5 ± 7.8 mg/dL
same,HDL cholesterol levels (mean value ± standard deviation),ovariectomated rats [1]; [15],2.4 ± 0.9 mg/dL
same,IGF1 (= somatomedin C),ovariectomated rats [2]; [16],704.6 ± 70.4
same,IGF1 (= somatomedin C),ovariectomated rats [2]; [17],547.0 ± 88.7
same,IGF1 (= somatomedin C),ovariectomated rats [2]; [18],393.6 ± 71.1
same,Total cholesterol levels (mean value ± standard deviation),ovariectomated rats [3]; [8],81.0 ± 3.3 mg/dL
same,Total cholesterol levels (mean value ± standard deviation),ovariectomated rats [3]; [9],82.4 ± 15.8 mg/dL
same,Total cholesterol levels (mean value ± standard deviation),ovariectomated rats [3]; [10],30.3 ± 9.6 mg/dL
same,Total cholesterol levels (mean value ± standard deviation),ovariectomated rats [3]; [11],6.8 ± 3.2 mg/dL
same,Total cholesterol levels (mean value ± standard deviation),ovariectomated rats [3]; [12],86.5 ± 9.6 mg/dL
same,Total cholesterol levels (mean value ± standard deviation),ovariectomated rats [3]; [13],80.2 ± 14.4 mg/dL
same,Total cholesterol levels (mean value ± standard deviation),ovariectomated rats [3]; [14],39.8 ± 10.2 mg/dL
same,Total cholesterol levels (mean value ± standard deviation),ovariectomated rats [3]; [15],5.5 ± 3.3 mg/dL
same,Weights of adrenal glands (mean value),ovariectomated rats [4]; [19],53.7 mg
same,Weights of adrenal glands (mean value),ovariectomated rats [4]; [20],58.9 mg
same,Weights of adrenal glands (mean value),ovariectomated rats [4]; [21],59.0 mg
same,Weights of adrenal glands (mean value),ovariectomated rats [4]; [22],80.8 mg
same,Weights of adrenal glands (mean value),ovariectomated rats [4]; [23],56.6 mg
same,"Highest AUC found, measured 0 to 24 hours after application",[5],2.121 ng·h/mL
same,"Lowest AUC, measured 0 to 24 hours after application",[5],0.284 ng·h/mL
same,Angiotensin I,ovariectomated rats [6]; [8],408.2 ± 31.2
same,Angiotensin I,ovariectomated rats [6]; [9],402.2 ± 30.3
same,Angiotensin I,ovariectomated rats [6]; [10],572.2 ± 35.0
same,Angiotensin I,ovariectomated rats [6]; [11],930.1 ± 146.2
same,Angiotensin I,ovariectomated rats [6]; [12],473.7 ± 19.7
same,Angiotensin I,ovariectomated rats [6]; [13],492.6 ± 29.1
same,Angiotensin I,ovariectomated rats [6]; [14],498.7 ± 26.1
same,Angiotensin I,ovariectomated rats [6]; [15],833.1 ± 137.2
same,"Effect on angiotensin I (AI) values, in words","ovariectomated rats [6]; doses of 10 or 100 μg, detectable as early as day 4",sharp increases of AI
same,Uterus weights (mean value),ovariectomated rats [7]; [19],152.2 mg
same,Uterus weights (mean value),ovariectomated rats [7]; [20],195.8 mg
same,Uterus weights (mean value),ovariectomated rats [7]; [21],282.4 mg
same,Uterus weights (mean value),ovariectomated rats [7]; [22],441.2 mg
same,Uterus weights (mean value),ovariectomated rats [7]; [23],352.59 mg
"C#C[C@]1(O)CC[C@H]2[C@@H]3CCc4cc(OS(=O)(=O)N(CC)CC)ccc4[C@H]3CC[C@@]21C [J 271, 17β-Hydroxy-19-nor-17α-pregna-1,3,5(10)-triene-20-in-3-yl N,N-diethyl-sulfamate]",HDL cholesterol levels (mean value ± standard deviation),ovariectomated rats [1]; [8],57.6 ± 6.5 mg/dL
same,HDL cholesterol levels (mean value ± standard deviation),ovariectomated rats [1]; [9],57.1 ± 7.1 mg/dL
same,HDL cholesterol levels (mean value ± standard deviation),ovariectomated rats [1]; [10],54.6 ± 5.7 mg/dL
same,HDL cholesterol levels (mean value ± standard deviation),ovariectomated rats [1]; [11],13.2 ± 14.0 mg/dL
same,HDL cholesterol levels (mean value ± standard deviation),ovariectomated rats [1]; [12],57.3 ± 6.0 mg/dL
same,HDL cholesterol levels (mean value ± standard deviation),ovariectomated rats [1]; [13],59.6 ± 6.8 mg/dL
same,HDL cholesterol levels (mean value ± standard deviation),ovariectomated rats [1]; [14],49.9 ± 6.0 mg/dL
same,HDL cholesterol levels (mean value ± standard deviation),ovariectomated rats [1]; [15],10.7 ± 8.2 mg/dL
same,IGF1 (= somatomedin C),ovariectomated rats [2]; [16],826.4 ± 96.7
same,IGF1 (= somatomedin C),ovariectomated rats [2]; [17],593.7 ± 57.0
same,IGF1 (= somatomedin C),ovariectomated rats [2]; [18],351.5 ± 32.6
same,Total cholesterol levels (mean value ± standard deviation),ovariectomated rats [3]; [8],96.0 ± 15.0 mg/dL
same,Total cholesterol levels (mean value ± standard deviation),ovariectomated rats [3]; [9],108.5 ± 10.3 mg/dL
same,Total cholesterol levels (mean value ± standard deviation),ovariectomated rats [3]; [10],92.4 ± 12.1 mg/dL
same,Total cholesterol levels (mean value ± standard deviation),ovariectomated rats [3]; [11],24.5 ± 14.4 mg/dL
same,Total cholesterol levels (mean value ± standard deviation),ovariectomated rats [3]; [12],91.1 ± 18.3 mg/dL
same,Total cholesterol levels (mean value ± standard deviation),ovariectomated rats [3]; [13],101.4 ± 6.3 mg/dL
same,Total cholesterol levels (mean value ± standard deviation),ovariectomated rats [3]; [14],81.9 ± 12.6 mg/dL
same,Total cholesterol levels (mean value ± standard deviation),ovariectomated rats [3]; [15],18.6 ± 8.3 mg/dL
same,"Drop in total and HDL cholesterol levels in the blood, in words","ovariectomated rats [3]; highest dose, versus EE",still recognizably lower than that caused by EE
same,"Effect on cholesterol levels in the blood (total and HDL), in words",ovariectomated rats [3]; up to 10 μg,did not reduce cholesterol levels in the blood
same,Weights of adrenal glands (mean value),ovariectomated rats [4]; [19],57.1 mg
same,Weights of adrenal glands (mean value),ovariectomated rats [4]; [20],57.4 mg
same,Weights of adrenal glands (mean value),ovariectomated rats [4]; [21],63.1 mg
same,Weights of adrenal glands (mean value),ovariectomated rats [4]; [22],66.5 mg
same,Weights of adrenal glands (mean value),ovariectomated rats [4]; [23],57.9 mg
same,Angiotensin I,ovariectomated rats [6]; [8],380.8 ± 35.8
same,Angiotensin I,ovariectomated rats [6]; [9],383.8 ± 47.1
same,Angiotensin I,ovariectomated rats [6]; [10],435.2 ± 53.8
same,Angiotensin I,ovariectomated rats [6]; [11],734.0 ± 75.7
same,Angiotensin I,ovariectomated rats [6]; [12],462.2 ± 71.3
same,Angiotensin I,ovariectomated rats [6]; [13],425.9 ± 43.9
same,Angiotensin I,ovariectomated rats [6]; [14],373.4 ± 42.3
same,Angiotensin I,ovariectomated rats [6]; [15],668.2 ± 68.6
same,"Effect on angiotensin I (AI) values, in words",ovariectomated rats [6]; dose of 10 μg/day,no clear effect on AI
same,"Effect on angiotensin I (AI) values, in words",ovariectomated rats [6]; dose of 100 μg/day,increases in AI values but these are significantly lower than those observed under the influence of EE or J 824
same,"Influence on the angiotensin I level, summary in words",ovariectomated rats [6]; dose-action relationships on days 4 and 8,clearly below those for EE
same,Uterus weights (mean value),ovariectomated rats [7]; [19],144.2 mg
same,Uterus weights (mean value),ovariectomated rats [7]; [20],289.9 mg
same,Uterus weights (mean value),ovariectomated rats [7]; [21],605.1 mg
same,Uterus weights (mean value),ovariectomated rats [7]; [22],563.6 mg
same,Uterus weights (mean value),ovariectomated rats [7]; [23],540.8 mg
same,Oral dose at which the effect on uterus growth has reached a plateau,ovariectomated rats [7]; oral,0.01 mg/animal/day
same,"Effects on uterus growth, comparison in words","ovariectomated rats [7]; oral, versus EE and estradiol",clear superiority to EE and great superiority to estradiol
"CCN(CC)S(=O)(=O)Oc1ccc2c(c1)CC[C@@H]1[C@@H]2CC[C@]2(C)[C@@H](O)CC[C@@H]12 [J 981, 17β-Hydroxy-estra-1,3,5(10)-trien-3-yl N,N-diethyl-sulfamate]",Weights of adrenal glands (mean value),ovariectomated rats [4]; [23],50.5 mg
same,Uterus weights (mean value),ovariectomated rats [7]; [23],225.34 mg
same,melting point,,175 to 176 °C
"CCN(CC)S(=O)(=O)Oc1ccc2c(c1)CC[C@@H]1[C@@H]2CC[C@]2(C)[C@@H](O)[C@H](O)C[C@@H]12 [J 984, 16α,17β-Dihydroxy-estra-1,3,5(10)-trien-3-yl N,N-diethyl-sulfamate]",Weights of adrenal glands (mean value),ovariectomated rats [4]; [24],59.3 mg
same,Uterus weights (mean value),ovariectomated rats [7]; [24],245.63 mg
same,melting point,,121 to 124 °C
"CN(C)S(=O)(=O)Oc1ccc2c(c1)CC[C@@H]1[C@@H]2CC[C@]2(C)[C@@H](O)[C@H](O)C[C@@H]12 [J 989, 16α,17β-Dihydroxy-estra-1,3,5(10)-trien-3-yl N,N-dimethyl-sulfamate]",Weights of adrenal glands (mean value),ovariectomated rats [4]; [24],52.8 mg
same,Uterus weights (mean value),ovariectomated rats [7]; [24],182.79 mg
same,melting point,,180 to 181 °C
